Experimental data taken from patent US8211941B2, “Antagonists of the transient receptor potential vanilloid 1 and uses thereof” (The Board of Regents of the University of Texas System, priority 2007, dated 2012).

What was measured:
[1] = test system: vagal afferent nerves (TRPV1) in the stomach; test: Nausea and vomiting induced by balloon inflation in the jejunum, behavioral emetic score; type: in vivo, dog; conditions: dogs, one week after 250 ml of a 100 nM solution sprayed endoscopically onto gastric mucosa; baseline 26.3±4.0; p=0.01
Method: (§1) Nausea and vomiting was induced using either balloon distention or intra-venous infusion of vasopressin (0.5 U/Kg infused over 20 minutes). Untreated represents control or baseline mean score of the emetic response was 26.3±4.0 and 29.0±6.2 for balloon distention and vasopressin stimuli respectively. Following, Resiniferatoxin infusion (250 ml of a 100 nM solution): the mean score with balloon distention was 11.7±4.2 (p=0.01) while the mean score with vasopressin was 16.3±5 (p=0.05).
(§2) Four dogs with surgically created jejunocutaneous fistulae 20 cm distal to the pylorus were used in this study. Nausea and vomiting were induced using two different stimuli, both of which are vagally dependent, at least in part: (1) Balloon inflation in the jejunum (2) Intravenous vasopressin infusion (0.5 U/Kg infused over 20 minutes). Nausea was assessed using a previously validated behavioral scoring system in addition to counting actual episodes of vomiting. After baseline observations, resiniferatoxin (250 ml of a 100 nM solution) was administered endoscopically using a spray catheter to coat the mucosal lining of the stomach under general anesthesia into the stomach. One week later, the response to balloon distention and vasopressin infusion was recorded again.

[2] = test system: vagal afferent nerves (TRPV1) in the stomach; test: Nausea and vomiting induced by intravenous vasopressin infusion, behavioral emetic score; type: in vivo, dog; conditions: dogs, vasopressin 0.5 U/Kg iv over 20 minutes, one week after 250 ml of a 100 nM solution sprayed endoscopically; baseline 29.0±6.2; p=0.05
Method: as §1, §2

[3] = General observation of dogs after endoscopic resiniferatoxin spray; type: in vivo, dog; conditions: after endoscopic gastric spray of 250 ml of a 100 nM solution
Method: as §2

ferrets [4] = conditions: subcutaneous; cited from earlier work
Suncus murinus = conditions: subcutaneous; cited from earlier work
ferrets [5] = conditions: subcutaneous; cited from earlier work; remark: listed apart in the source
dogs = conditions: subcutaneous; cited from earlier work

In the case of `C=C(C)[C@]12C[C@@H](C)[C@@]34O[C@](Cc5ccccc5)(O[C@@H]1[C@@H]3C=C(COC(=O)Cc1ccc(O)c(OC)c1)C[C@]1(O)C(=O)C(C)=C[C@@H]41)O2` [Resiniferatoxin], the “mean score of the emetic response with balloon distention” value [1] is reported as 11.7±4.2, the “mean score of the emetic response with vasopressin” value [2] is reported as 16.3±5 and the body weight change [3] is reported as “minor weight loss”. The “general health of dogs” value [3] was “appeared healthy”, the “effect on copper sulphate, whole body radiation and Loperamide induced emetic response” value (ferrets [4]) was “blocked” and the “emetic / anti-emetic properties” value (Suncus murinus) was “initial emetic followed by anti-emetic properties”. For the same compound, the “effect on acute and delayed cisplatin and apomorphine induced emesis” value (ferrets [5]) was “inhibited” and the “effect on acute and delayed cisplatin and apomorphine induced emesis” value (dogs) was “inhibited”.
